Laboratory results: patent publication USRE40707E1, “Use of carbazole compounds for the treatment of congestive heart failure” (SB Pharmco Puerto Rico Inc., priority 1995, dated 2009)
Like-named read-outs stand apart in the source and are kept apart here.

Columns and labels:
patients with CHF [1] = conditions: treatment of CHF; cited from earlier work
patients with CHF [2] = experiment: U.S. Carvedilol Heart Failure Trials: mortality studies in CHF patients; assay type: in vivo, human; conditions: for Risk reduction of mortality / Risk reduction, All Cause Mortality: vs placebo; for All Cause Mortality (%) / Risk reduction, All Cause Mortality: all patients; for All Cause Mortality (%): class II-IV CHF, intention-to-treat, placebo 8.2%; for Risk reduction, All Cause Mortality: 95% CI 42-81
Source text: To determine if β-adrenergic blockade might inhibit the deleterious effects of the sympathetic nervous system on survival in heart failure (CHF), 1052 patients with CHF were prospectively enrolled into a multicenter trial program, in which the patients were randomly assigned (double-blind) to 6-12 months' treatment with placebo (PBO) or carvedilol (CRV). After a common screening period, patients with class II-IV CHF (see next paragraph for the definitions of the classification of CI) and an ejection fraction <0.35 were assigned to one of four protocols based on performance on a 6-minute walk test. PBO or CRV was added to existing therapy with digoxin, diuretics and an ACE inhibitor. All-cause mortality was monitored by a prospectively constituted Data and Safety Monitoring Board (DSMB). After 25 months of enrollment, the DSMB recommended termination of the program because of a favorable effect of CRV on survival. By […], mortality was 8.2% in the PBO group but only 2.9% in the CRV group (P=0.0001. Cochran-Mantel-Haensel analysis). This represented a reduction in risk of death by CRV of 67% (95% CI: 42% to 81%). The treatment effect was similar in patients with class II and class III-IV symptoms. Mortality was reduced in class II patients from 5.9% to 1.9%, a 68% reduction (95% CI: 20% to 97%) [P=0.015,), and in class III-IV patients from 11.0% to 4.2%. a 67% reduction (95% CI 30% to 84%), [P=0.004, a log-rank]. Importantly, the effect of CRV was similar in ischematic heart disease (risk reduced by 67%. P=0.003) and in nonischemic dilated cardiomyopathy (risk reduced by 67%. P=0.014). […] The treatment effect is seen across a broad range of severity and etiology of disease.
Patients on background therapy with diuretics. ACE inhibitors and/or digoxin were stratified on the basis of baseline […] exercise performance, into one of four trials: • study 220, a dose response study in moderate (NYHA II-IV) CHF with exercise testing as a primary endpoint • study 221, a dose titration study in moderate (NYHA II-IV) CI with exercise testing as a primary endpoint • study 239, a dose titration study in severe (NYHA III-IV) CHF with quality of life as a primary endpoint • study 240, a dose titration study in mild (NYHA II—III) CHF with progression of CHF as a primary endpoint
Sixty-four centers in the US participated in the trial program. All sites conducted protocols 239 and 240, while 33 performed protocol 220 and 31 performed protocol 221.
Although each trial had its own individual objectives, the overall program objective defined prospectively was evaluation of all-cause mortality. Based upon a projected enrollment of 1100 patients, the program had 90% power to detect a 50% reduction in mortality (two-sided) between carvedilol and placebo, assuming a mortality rate in the placebo group of 12% over the duration of the trials (α=0.05).
Randomization was preceded by a screening and challenge period common to the four protocols. The purpose of the screening period was to quality patients for study entry obtain reproducible baseline measurements, and stratify patients into the appropriate trial based on submaximal exercise testing. During the challenge period, patients received low-dose open-label carvedilol (6.25 mg b.i.d.) for two weeks. […] Patients tolerating low-dose carvedilol were then randomized to blinded medication (carvedilol or placebo) with the dose titrated over several weeks in the range of 6.25 to 50 mg b.i.d. (or equivalent level of placebo). The maintenance phase of each study ranged from six to 12 months, after which patients had the option of receiving open-label carvedilol in an extension study.
The analysis presented below corresponds to the data set on which the DSMB made the recommendation to terminate the trials. Included in this […] analysis are all patients enrolled in the US trials as of Jan. 20, […]; 624 receiving carvedilol and 356 placebo. […]

[3] = system: acute myocardial infarction; conditions: canine model of acute myocardial infarction; cited from earlier work
[4] = system: acute myocardial infarction; conditions: rat model of acute myocardial infarction; cited from earlier work
[5] = system: acute myocardial infarction; conditions: porcine model of acute myocardial infarction; cited from earlier work

COCCc1ccc(OCC(O)CNC(C)C)cc1 (centres unmarked) [metoprolol]
mortality, drug-treated vs placebo-treated patients (patients with CHF [1]): no difference in mortality

CC(C)NCC(O)COc1ccc(COCCOC(C)C)cc1 (centres unmarked) [bisoprolol]
mortality, drug-treated vs placebo-treated patients (patients with CHF [1]): no difference in mortality

COc1ccccc1OCCNCC(O)COc1cccc2[nH]c3ccccc3c12 (centres unmarked) [Carvedilol]
Risk reduction of mortality (patients with CHF [2]; Class II CHF, 95% CI 20-97): 68% | Risk reduction of mortality (patients with CHF [2]; Class II CHF, 95% CI 20-97, listed as CRV): 68% | Mortality (%) (patients with CHF [2]; Class II CHF, placebo 5.9%): (1.9%) | Mortality (%) (patients with CHF [2]; Class II CHF, placebo 5.9%, listed as CRV): 1.9% | Risk reduction of mortality (patients with CHF [2]; Class III-IV CHF, 95% CI 30-84): 66% | Risk reduction of mortality (patients with CHF [2]; Class III-IV CHF, 95% CI 30-84, listed as CRV): 67% | Mortality (%) (patients with CHF [2]; Class III-IV CHF, placebo 11.0%): (4.2%) | Mortality (%) (patients with CHF [2]; Class III-IV CHF, placebo 11.0%, listed as CRV): 4.2% | Risk reduction of mortality (patients with CHF [2]; Ischemic Etiology, 95% CI 32-85): 67% | Risk reduction of mortality (patients with CHF [2]; Ischemic Etiology, 95% CI 32-85, listed as CRV): 67% | Mortality (%) (patients with CHF [2]; Ischemic Etiology, placebo 8.9%): (3.2%) | Risk reduction of mortality (patients with CHF [2]; Non-Ischemic Etiology, 95% CI 20-86): 67% | Risk reduction of mortality (patients with CHF [2]; Non-Ischemic Etiology, 95% CI 20-86, listed as CRV): 67% | Mortality (%) (patients with CHF [2]; Non-Ischemic Etiology, placebo 7.3%): (2.5%) | All Cause Mortality (%) (patients with CHF [2]): (2.9%) | All Cause Mortality (%) (patients with CHF [2]; listed as CRV): 2.9% | Risk reduction, All Cause Mortality (patients with CHF [2]): 67% | Risk reduction, All Cause Mortality (patients with CHF [2]; listed as CRV): 67% | infarct size [3]: markedly reduces infarct size | infarct size [4]: markedly reduces infarct size | infarct size [5]: markedly reduces infarct size
